Experimental data from patent US20240166652A1, “MODULATORS OF THE INTEGRATED STRESS PATHWAY” (Calico Life Sciences LLC, priority 2017, published 2024).

tested on: ATF4 luciferase reporter in HEK293T cells; test: ATF4-Luc assay (ATF4 luciferase reporter, tunicamycin-treated HEK293T cells); format: cell-based, human; details: Homo sapiens, HEK-293T; HEK293T cells carrying the ATF4 luciferase reporter, 1 μg/mL tunicamycin, 7 hours

Question: How did the EC50 turn out when O=C(COc1ccc(Cl)c(F)c1)N[C@@H]1CC[C@]2(NC(=O)COc3ccc(Cl)c(F)c3)CC[C@H]1C2 (racemic) [Compound 653, rac-N,N′-[(1S,4S,5R)-bicyclo[3.2.1]octane-1,4-diyl]bis[2-(4-chloro-3-fluorophenoxy)acetamide]] was run?
Answer: < 10 nM

Question: For O=C(COc1ccc(Cl)c(F)c1)NC12CCC(NC(=O)COc3ccnc(C(F)(F)F)c3)(CC1)[C@H](O)C2 (single isomer, unassigned) [Compound 318], which EC50 is on record?
Answer: 10 to 50 nM

Question: N#Cc1cccc(COCC(=O)NC23CC(NC(=O)COc4ccc(Cl)c(Cl)c4)(C2)C3)c1 [Compound 161, 2-[(3-cyanophenyl)methoxy]-N-{3-[2-(3,4-dichlorophenoxy)acetamido]bicyclo[1.1.1]pentan-1-yl}acetamide] was tested. Which EC50 did it give?
Answer: 50 to 250 nM

Question: O=C(COc1ccc(Cl)c(F)c1)NC12CCC(NC(=O)COc3cc(-c4ccccc4)n(-c4ccccc4)n3)(CC1)[C@@H](O)C2 [Compound 513, 2-(4-chloro-3-fluorophenoxy)-N-[(3S)-4-{2-[(1,5-diphenyl-1H-pyrazol-3-yl)oxy]acetamido}-3-hydroxybicyclo[2.2.2]octan-1-yl]acetamide] was tested. Which EC50 did it give?
Answer: > 2000 nM

Question: For O=C(COc1ccc(Cl)c(F)c1)NC12CC(NC(=O)COc3ccccc3OCCO)(C1)C2 [Compound 805, 2-(4-chloro-3-fluorophenoxy)-N-(3-{2-[2-(2-hydroxyethoxy)phenoxy]acetamido}bicyclo[1.1.1]pentan-1-yl)acetamide], which EC50 is on record?
Answer: 500 to 2000 nM

Question: How did the EC50 turn out when O=C(COc1cc(F)c2cn[nH]c2c1)NC12CCC(NC(=O)COc3ccc(F)cc3)(CC1)[C@@H](O)C2 [Compound 721] was run?
Answer: < 10 nM

Question: How did the EC50 turn out when O=C(COc1ccc(Cl)c(F)c1)NC12CC(NS(=O)(=O)Cc3ccc(Cl)cc3)(C1)C2 [Compound 427, 2-(4-chloro-3-fluorophenoxy)-N-(3-{[(4-chlorophenyl)methanesulfonyl]amino}bicyclo[1.1.1]pentan-1-yl)acetamide] was run?
Answer: 500 to 2000 nM

Question: How did the EC50 turn out when O=C(COc1ccc(C(F)(F)F)nc1)NC12CC(NC(=O)COc3ccc(C(F)(F)F)nc3)(C1)C2 [Compound 400, N,N′-(bicyclo[1.1.1]pentane-1,3-diyl)bis(2-{[6-(trifluoromethyl)pyridin-3-yl]oxy}acetamide)] was run?
Answer: 50 to 250 nM

Question: How did the EC50 turn out when O=C(COc1ccc(Cl)c(F)c1)NC12CCC(NS(=O)(=O)Cc3ccc(C(F)(F)F)cc3)(CC1)[C@@H](O)C2 [Compound 429, 2-(4-chloro-3-fluorophenoxy)-N-[(3S)-3-hydroxy-4-({[4-(trifluoromethyl)phenyl]methanesulfonyl}amino)bicyclo[2.2.2]octan-1-yl]acetamide] was run?
Answer: 50 to 250 nM

Question: With COc1ccc(COCC(=O)NC23CC(NC(=O)COc4ccc(Cl)c(F)c4)(C2)C3)cn1 [Compound 281, 2-(4-chloro-3-fluorophenoxy)-N-(3-{2-[(6-methoxypyridin-3-yl)methoxy]acetamido}bicyclo[1.1.1]pentan-1-yl)acetamide] as the compound, how does the EC50 read?
Answer: 500 to 2000 nM

Question: For O=C(COc1ccc(Cl)c(F)c1)N[C@H]1C[C@H]2C[C@@H]1C[C@@H]2NC(=O)COc1ccc(Cl)c(F)c1 (single isomer, unassigned) [Compound 620], which EC50 is on record?
Answer: < 10 nM

Question: With O=C(/C=C/c1ccc(C(F)(F)F)cc1)NC12CC(NC(=O)COc3ccc(Cl)c(F)c3)(C1)C2 [Compound 346, (2E)-N-{3-[2-(4-chloro-3-fluorophenoxy)acetamido]bicyclo[1.1.1]pentan-1-yl}-3-[4-(trifluoromethyl)phenyl]prop-2-enamide] as the compound, how does the EC50 read?
Answer: 50 to 250 nM

Question: How did the EC50 turn out when O=C(COc1ccc(S(F)(F)(F)(F)F)cc1)NC12CC(NC(=O)COc3ccc(Cl)c(F)c3)(C1)C2 [Compound 219, 2-(4-chloro-3-fluorophenoxy)-N-(3-{2-[4-(pentafluoro-λ^6-sulfanyl)phenoxy]acetamido}bicyclo[1.1.1]pentan-1-yl)acetamide] was run?
Answer: < 10 nM

Question: How did the EC50 turn out when O=C(COc1ccc(Cl)cc1)NC12CC(NC(=O)COc3cccc(C(F)(F)F)n3)(C1)C2 [Compound 836, 2-(4-chlorophenoxy)-N-[3-(2-{[6-(trifluoromethyl)pyridin-2-yl]oxy}acetamido)bicyclo[1.1.1]pentan-1-yl]acetamide] was run?
Answer: 250 to 500 nM

Question: For COc1cc(OCC(=O)NC23CCC(NC(=O)COc4ccc(F)c(F)c4)(CC2)[C@@H](O)C3)ccc1F [Compound 756, 2-(3,4-difluorophenoxy)-N-{(2S)-4-[2-(4-fluoro-3-methoxyphenoxy)acetamido]-2-hydroxybicyclo[2.2.2]octan-1-yl}acetamide], which EC50 is on record?
Answer: < 10 nM

Question: Which EC50 does the source give for O=C(COc1ccc(Cl)c(F)c1)NC12CC(NC(=O)OCCc3cccc(Cl)c3)(C1)C2 [Compound 165, 2-(3-chlorophenyl)ethyl {3-[2-(4-chloro-3-fluorophenoxy)-acetamido]bicyclo[1.1.1]pentan-1-yl}carbamate] here?
Answer: 50 to 250 nM

Question: Which EC50 does the source give for Cc1noc([C@H]2CC3(NC(=O)COc4ccc(Cl)c(F)c4)CCC2(NC(=O)COc2ccc(Cl)c(F)c2)CC3)n1 [Compound 420, N,N′-[(2S)-2-(3-methyl-1,2,4-oxadiazol-5-yl)bicyclo[2.2.2]octane-1,4-diyl]bis[2-(4-chloro-3-fluorophenoxy)acetamide]] here?
Answer: < 10 nM

Question: How did the EC50 turn out when CC(O)(c1ccc(OCC(=O)NC23CC(NC(=O)COc4ccc(Cl)c(F)c4)(C2)C3)cc1)C(F)(F)F (stereo not drawn) [Compound 413, 2-(4-chloro-3-fluorophenoxy)-N-(3-{2-[4-(1,1,1-trifluoro-2-hydroxypropan-2-yl)phenoxy]acetamido}bicyclo[1.1.1]pentan-1-yl)acetamide] was run?
Answer: 250 to 500 nM

Question: With O=C(COc1ccc(C(F)(F)F)nc1)NC12CCC(NC(=O)COc3ccc(C(F)(F)F)nc3)(CC1)C2 [Compound 530, N,N′-(bicyclo[2.2.1]heptane-1,4-diyl)bis(2-{[6-(trifluoromethyl)pyridin-3-yl]oxy}acetamide)] as the compound, how does the EC50 read?
Answer: 500 to 2000 nM

Question: Which EC50 does the source give for O=C(COc1ccc(Cl)c(Cl)c1)NC12CC(NC(=O)Cc3ccccn3)(C1)C2 [Compound 447, 2-(3,4-dichlorophenoxy)-N-{3-[2-(pyridin-2-yl)acetamido]bicyclo[1.1.1]pentan-1-yl}acetamide] here?
Answer: > 2000 nM

Question: For O=C(COc1ccc(F)c(C(F)(F)F)c1)NC12CCC(NC(=O)COc3ccc(Cl)c(F)c3)(CC1)[C@@H](O)C2 [Compound 848, 2-(4-chloro-3-fluorophenoxy)-N-[(2S)-4-{2-[4-fluoro-3-(trifluoromethyl)phenoxy]acetamido}-2-hydroxybicyclo[2.2.2]octan-1-yl]acetamide], which EC50 is on record?
Answer: < 10 nM

Question: How did the EC50 turn out when CCc1cc(C)cc(OCC(=O)NC23CCC(NC(=O)COc4ccc(Cl)c(F)c4)(CC2)[C@@H](O)C3)c1 [Compound 463, 2-(4-chloro-3-fluorophenoxy)-N-{(2S)-4-[2-(3-ethyl-5-methylphenoxy)acetamido]-2-hydroxybicyclo[2.2.2]octan-1-yl}acetamide] was run?
Answer: > 2000 nM

Question: How did the EC50 turn out when CN1Cc2ccc(OCC(=O)NC34CCC(NC(=O)COc5ccc(Cl)c(F)c5)(CC3)[C@@H](O)C4)cc2C1=O [Compound 695, 2-(4-chloro-3-fluorophenoxy)-N-[(2S)-2-hydroxy-4-{2-[(2-methyl-3-oxo-2,3-dihydro-1H-isoindol-5-yl)oxy]acetamido}bicyclo[2.2.2]octan-1-yl]acetamide] was run?
Answer: 500 to 2000 nM

Question: Cc1ccc(OCC(=O)NC23CC(NC(=O)COc4ccc(Cl)c(F)c4)(C2)C3)c(N)n1 [Compound 229, 2-[(2-amino-6-methylpyridin-3-yl)oxy]-N-{3-[2-(4-chloro-3-fluorophenoxy)acetamido]bicyclo[1.1.1]pentan-1-yl}acetamide] was tested. Which EC50 did it give?
Answer: 500 to 2000 nM

Question: Which EC50 does the source give for Cc1cc(OCC(=O)NC23CCC(NC(=O)COc4ccc(C(F)(F)F)c(F)c4)(CC2)C[C@@H]3O)ccc1Cl [Compound 841, 2-(4-chloro-3-methylphenoxy)-N-[(2S)-4-{2-[3-fluoro-4-(trifluoromethyl)phenoxy]acetamido}-2-hydroxybicyclo[2.2.2]octan-1-yl]acetamide] here?
Answer: < 10 nM

Question: For O=C(COCc1ccc(C(=O)O)cc1)NC12CC(NC(=O)COc3ccc(Cl)c(F)c3)(C1)C2 [Compound 211], which EC50 is on record?
Answer: > 2000 nM

Question: How did the EC50 turn out when COC(=O)C1=CC2(NC(=O)COc3ccc(Cl)c(F)c3)CCC1(NC(=O)COc1ccc(Cl)c(F)c1)CC2 [Compound 718, methyl 1,4-bis[2-(4-chloro-3-fluorophenoxy)acetamido]bicyclo[2.2.2]oct-2-ene-2-carboxylate] was run?
Answer: < 10 nM

Question: O=C(COc1ncc(C(F)(F)F)cn1)NC12CCC(NC(=O)COc3ccc(Cl)c(F)c3)(CC1)[C@@H](O)C2 [Compound 630, 2-(4-chloro-3-fluorophenoxy)-N-[(2S)-2-hydroxy-4-(2-{[5-(trifluoromethyl)pyrimidin-2-yl]oxy}acetamido)bicyclo[2.2.2]octan-1-yl]acetamide] was tested. Which EC50 did it give?
Answer: < 10 nM

Question: Which EC50 does the source give for O=C(COCCc1ccc(Cl)cc1)NC12CC(NC(=O)COc3ccc(Cl)c(Cl)c3)(C1)C2 [Compound 155, 2-[2-(4-chlorophenyl)ethoxy]-N-{3-[2-(3,4-dichlorophenoxy)acetamido]bicyclo-[1.1.1]pentan-1-yl}acetamide] here?
Answer: 10 to 50 nM

Question: With O=C(COc1ccc(Cl)cc1)NC12CCC(NC(=O)COc3ccc(C(F)(F)F)c(F)c3)(CC1)[C@@H](O)C2 [Compound 834, 2-(4-chlorophenoxy)-N-[(3S)-4-{2-[3-fluoro-4-(trifluoromethyl)phenoxy]acetamido}-3-hydroxybicyclo[2.2.2]octan-1-yl]acetamide] as the compound, how does the EC50 read?
Answer: < 10 nM

Question: How did the EC50 turn out when O=C(CNC(=O)c1ccccc1)NC12CC(NC(=O)COc3ccc(Cl)c(F)c3)(C1)C2 [Compound 492, N-[2-({3-[2-(4-chloro-3-fluorophenoxy)acetamido]bicyclo[1.1.1]pentan-1-yl}amino)-2-oxoethyl]benzamide] was run?
Answer: > 2000 nM

Question: How did the EC50 turn out when O=C(COc1cccnc1)NC12CCC(NC(=O)COc3ccc(Cl)c(F)c3)(CC1)[C@@H](O)C2 [Compound 607, 2-(4-chloro-3-fluorophenoxy)-N-[(2S)-2-hydroxy-4-{2-[(pyridin-3-yl)oxy]acetamido}bicyclo[2.2.2]octan-1-yl]acetamide] was run?
Answer: 50 to 250 nM

Question: For O=C(COc1ccc(Cl)c(F)c1)NC12CC(NCC(=O)c3ccc(Cl)cc3)(C1)C2 [Compound 289, 2-(4-chloro-3-fluorophenoxy)-N-(3-{[2-(4-chlorophenyl)-2-oxoethyl]amino}bicyclo[1.1.1]pentan-1-yl)acetamide], which EC50 is on record?
Answer: 50 to 250 nM
